In the NIST ThermoML archive (doi:10.1016/j.jct.2018.07.013):

Tests used:
[1] = 298.15 K, 100 kPa, Liquid; for speed of sound: Frequency=3 MHz, Single path-length method; for mass density: Vibrating tube method
[2] = xn = mol fraction of the nth substance listed; conditions: 298.15 K, 100 kPa, Liquid; for speed of sound: Frequency=3 MHz, Single path-length method; for mass density: Vibrating tube method
[3] = excess molar enthalpy (molar enthalpy of mixing); xn = mol fraction of the nth substance listed; conditions: 298.15 K, 100 kPa, Liquid, Power-compensation calorimetry

CO [methanol]
[1]
Conditions | mass density [kg/m3] | speed of sound [m/s]
– | 786.53 | 1104

CO [methanol] + CCOC(=O)C(C)O
[2], x2 = 0
Conditions | mass density [kg/m3] | speed of sound [m/s]
– | 786.53 | 1104

CO [methanol] + COC(=O)C(C)O
[2], x2 = 0
Conditions | mass density [kg/m3] | speed of sound [m/s]
– | 786.53 | 1104

COC(=O)C(C)O (stereo not given) [methyl 2-hydroxypropanoate]
[1]
Conditions | mass density [kg/m3] | speed of sound [m/s]
– | 1087.35 | 1339.3

COC(=O)C(C)O (stereo not given) [methyl 2-hydroxypropanoate] + CCCCO
Conditions | excess molar enthalpy, [3] [kcal/mol] | mass density, [2] [kg/m3] | speed of sound, [2] [m/s]
x1 = 0.054 | 0.0531 | – | –
x1 = 0.0589 | – | 822.83 | 1242.8
x1 = 0.1088 | – | 837.09 | 1245.1
x1 = 0.132 | 0.109 | – | –
x1 = 0.174 | 0.138 | – | –
x1 = 0.1905 | – | 860.37 | 1249.8
x1 = 0.287 | 0.186 | – | –
x1 = 0.2973 | – | 890.71 | 1257.2
x1 = 0.384 | 0.204 | – | –
x1 = 0.3887 | – | 916.62 | 1265
x1 = 0.487 | 0.207 | – | –
x1 = 0.4999 | – | 948.04 | 1275.8
x1 = 0.552 | 0.2 | – | –
x1 = 0.5977 | – | 975.58 | 1286.4
x1 = 0.6976 | – | 1003.57 | 1298.3
x1 = 0.705 | 0.16 | – | –
x1 = 0.75 | 0.136 | – | –
x1 = 0.7926 | – | 1030.02 | 1310.6
x1 = 0.864 | 0.0767 | – | –
x1 = 0.9107 | – | 1062.72 | 1326.6
x1 = 0.934 | 0.039 | – | –
x1 = 0.9577 | – | 1075.69 | 1333.2
x1 = 1 | – | 1087.35 | 1339.3

COC(=O)C(C)O (stereo not given) [methyl 2-hydroxypropanoate] + CCCO
Conditions | excess molar enthalpy, [3] [kcal/mol] | mass density, [2] [kg/m3] | speed of sound, [2] [m/s]
x1 = 0.045 | – | 815.93 | 1211.5
x1 = 0.05 | 0.0457 | – | –
x1 = 0.1025 | – | 836.2 | 1218.9
x1 = 0.104 | 0.0832 | – | –
x1 = 0.2047 | – | 870.81 | 1232.5
x1 = 0.207 | 0.134 | – | –
x1 = 0.3 | – | 901.52 | 1245.4
x1 = 0.309 | 0.162 | – | –
x1 = 0.4004 | – | 932.31 | 1259.8
x1 = 0.411 | 0.172 | – | –
x1 = 0.501 | 0.17 | – | –
x1 = 0.5012 | – | 961.71 | 1274.1
x1 = 0.5911 | – | 986.71 | 1286.9
x1 = 0.607 | 0.157 | – | –
x1 = 0.6935 | – | 1013.88 | 1300.8
x1 = 0.707 | 0.133 | – | –
x1 = 0.7978 | – | 1040.2 | 1315.1
x1 = 0.802 | 0.101 | – | –
x1 = 0.9 | – | 1064.67 | 1327.6
x1 = 0.902 | 0.0531 | – | –
x1 = 0.945 | – | 1075.04 | 1333.1
x1 = 0.95 | 0.0258 | – | –
x1 = 1 | – | 1087.35 | 1339.3

COC(=O)C(C)O (stereo not given) [methyl 2-hydroxypropanoate] + CCO
Conditions | excess molar enthalpy, [3] [kcal/mol] | mass density, [2] [kg/m3] | speed of sound, [2] [m/s]
x1 = 0.0492 | – | 809.35 | 1158
x1 = 0.056 | 0.0277 | – | –
x1 = 0.0968 | – | 831.45 | 1172.3
x1 = 0.104 | 0.0497 | – | –
x1 = 0.185 | 0.0801 | – | –
x1 = 0.2099 | – | 879.28 | 1203.7
x1 = 0.225 | 0.0932 | – | –
x1 = 0.281 | 0.105 | – | –
x1 = 0.3161 | – | 918.72 | 1229.4
x1 = 0.3921 | – | 944.17 | 1245.2
x1 = 0.464 | 0.11 | – | –
x1 = 0.4987 | – | 976.29 | 1266.1
x1 = 0.543 | 0.102 | – | –
x1 = 0.5872 | – | 1000.2 | 1283.3
x1 = 0.666 | 0.0825 | – | –
x1 = 0.6963 | – | 1026.72 | 1300.8
x1 = 0.794 | 0.0569 | – | –
x1 = 0.8007 | – | 1049.53 | 1316.4
x1 = 0.8814 | – | 1065.65 | 1326.5
x1 = 0.903 | 0.0282 | – | –
x1 = 0.952 | 0.0151 | – | –
x1 = 0.9535 | – | 1079.11 | 1334.4
x1 = 1 | – | 1087.35 | 1339.3

COC(=O)C(C)O (stereo not given) [methyl 2-hydroxypropanoate] + CO
Conditions | excess molar enthalpy, [3] [kcal/mol] | mass density, [2] [kg/m3] | speed of sound, [2] [m/s]
x1 = 0.0565 | – | 826.67 | 1134.5
x1 = 0.0945 | – | 850.35 | 1152.9
x1 = 0.104 | 0.0038 | – | –
x1 = 0.151 | 0.00392 | – | –
x1 = 0.1933 | – | 902.12 | 1196.4
x1 = 0.262 | 0.00117 | – | –
x1 = 0.287 | 0.000215 | – | –
x1 = 0.3029 | – | 947.03 | 1234.1
x1 = 0.316 | -0.000956 | – | –
x1 = 0.3844 | – | 974.04 | 1254.7
x1 = 0.399 | -0.00413 | – | –
x1 = 0.482 | -0.00719 | – | –
x1 = 0.5099 | – | 1008.1 | 1282.4
x1 = 0.595 | -0.00903 | – | –
x1 = 0.6105 | – | 1029.88 | 1301.4
x1 = 0.687 | -0.00937 | – | –
x1 = 0.7215 | – | 1049.84 | 1318.2
x1 = 0.798 | -0.00686 | – | –
x1 = 0.8206 | – | 1064.82 | 1329.8
x1 = 0.879 | -0.0044 | – | –
x1 = 0.9225 | – | 1078.13 | 1337.1
x1 = 0.945 | -0.00194 | – | –
x1 = 0.9601 | – | 1082.7 | 1338.8
x1 = 1 | – | 1087.35 | 1339.3

CCCO [propan-1-ol]
[1]
Conditions | mass density [kg/m3] | speed of sound [m/s]
– | 799.66 | 1206

CCCO [propan-1-ol] + CCOC(=O)C(C)O
[2], x2 = 0
Conditions | mass density [kg/m3] | speed of sound [m/s]
– | 799.66 | 1206

CCCO [propan-1-ol] + COC(=O)C(C)O
[2], x2 = 0
Conditions | mass density [kg/m3] | speed of sound [m/s]
– | 799.66 | 1206
